The values that follow come from US4139628A, “Amino-spiro[oxa(or thia)cycloalkane-penam]-carboxylic acid derivatives” (U C B, Societe Anonyme, priority 1977, dated 1979).

The structures appear in SMILES notation.

In one assay the target is T1, beta-lactamase P 99 (Enterobacter cloacae, UniProt P05364).
T1 construct: source not detailed
The assay is described as follows: hydrolysis kinetics in the presence of beta-lactamase (residual activity). The format is biochemical, Gram-negative bacteria. To be noted: as compared with ampicillin.

Assay [1] has as its system Escherichia coli K 12-44 S. The format is cell-based. Conditions: E.COLI K 12-44S; relative to ampicillin = 1. On the procedure: It is very sensitive to penicillins due to hyperpermeability.
(§1) The products to be tested are introduced in increasing concentrations into a gelose culture medium in Petri dishes. A multiple inoculator is used to deposit simultaneously drops (10 microliters) of inoculum (suspension of about 10^5 bacteria per ml) onto the surface of the medium. After incubation at 37° C. for 24 hours, the growth of the bacteria is observed. By definition, the MIC is expressed as the minimum concentration of the tested compounds which inhibits the multiplication of the bacteria. In the results which follow, however, the MIC is given as being equal to 1 for the reference compounds and the activity figures given for the tested compounds of general formula (I) are, therefore, relative values. This presentation of the results is more correct and the most reproducible, because, for one and the same bacterial strain, different MIC values can be observed if they are measured at different times. This is bound up with the "seasonal" variations in the strains and their nutrient medium.

Assay [2] deals with Escherichia coli B AMPI-R. The assay is described as follows: minimum inhibitory concentration (MIC), gelose culture medium in Petri dishes. In kind it is cell-based. Conditions: relative MIC (ampicillin = 1) on E. COLI B versus its beta-lactamase hyperproducer mutant. On the procedure:
This is a mutant of the preceding strain, which we have produced.
as §1

The next assay deals with beta-lactamase TEM. Kind of assay: hydrolysis kinetics in the presence of beta-lactamase (residual activity). In kind it is biochemical, Gram-negative bacteria. Conditions: after incubation for 6 minutes.

T1 sequence (P05364 21-381): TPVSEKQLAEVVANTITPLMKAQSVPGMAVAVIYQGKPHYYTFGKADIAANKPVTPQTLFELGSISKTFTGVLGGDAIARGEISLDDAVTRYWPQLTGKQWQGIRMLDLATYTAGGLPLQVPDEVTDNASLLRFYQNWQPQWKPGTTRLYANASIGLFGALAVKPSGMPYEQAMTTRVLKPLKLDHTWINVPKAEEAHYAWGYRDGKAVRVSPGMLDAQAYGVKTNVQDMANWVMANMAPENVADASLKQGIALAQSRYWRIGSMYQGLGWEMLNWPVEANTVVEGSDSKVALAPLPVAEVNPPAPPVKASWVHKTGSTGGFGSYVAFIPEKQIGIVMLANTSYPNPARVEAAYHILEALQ

Take `NC(C(=O)NC1C(=O)N2C1SC1(CCSCC1)C2C(=O)O)c1ccccc1` (stereo not drawn) [Compound F, 6-(2"-amino-2"-phenylacetamido)-2',3',5',6'-tetrahydro-spiro[penam-2,4'-[4H]thiopyran]-3-carboxylic acid]: the “resistance to beta-lactamase, in words” value at beta-lactamase P 99 was “increased resistance”. Besides, the “MIC, relative value” in assay [1] was 15.

`N[C@@H](C(=O)NC1C(=O)N2C1SC1(CCOCC1)C2C(=O)O)c1ccccc1` (single isomer, unassigned) [Compound B, 6-(2"-amino-2"-phenylacetamido)-2',3',5',6'-tetrahydro-spiro[penam-2,4'-[4H]pyran]-3-carboxylic acid]: the “difference between the activity on E. COLI B and on E. COLI B Ampi-R (factor)” value in assay [2] stood at 3.5. Besides, the “MIC, relative value” in assay [1] came out at 1.9. In addition, the “Remaining activity as percentage” value with beta-lactamase TEM is recorded as 87%.

On to `NC(C(=O)NC1C(=O)N2C1SC1(CC[S+]([O-])CC1)C2C(=O)O)c1ccccc1` (stereo not drawn) [Compound J, 6-(2"-amino-2"-phenylacetamido)-2',3',5',6'-tetrahydro-spiro[penam-2,4'-[4H]thiopyran]-3-carboxylic acid 1'-oxide], for which, on beta-lactamase P 99, the “resistance to beta-lactamase, in words” value is “No change in behavior”.
